In the supplement of paper PMC10307832:

Legend:
Experiment in all cases: relative viability (nuclei count vs DMSO), 5 days (fraction); higher = more cells survive
[1] = compound: Cn1c(Nc2ccc(C(F)(F)F)cc2)nc2cc(Oc3ccnc(-c4ncc(C(F)(F)F)[nH]4)c3)ccc21 [RAF265] + Cc1nc(NC(=O)N2CCC[C@H]2C(N)=O)sc1-c1ccnc(C(C)(C)C(F)(F)F)c1 [Alpelisib] (partner 2 µM)
How it was run: (§1)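 Relative viability was taken as the ratio of nuclei in treated wells to nuclei in vehicle wells. Lung cancer cell lines in 1536-well plates received compounds by pin tool one day after seeding, either one drug alone or a fixed anchor-drug dose plus five library-drug doses (not always all listed) in √10 steps. Nuclei were counted on 4× images after 5 days of treatment, and values are medians of duplicate plates.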

[2] = compound: Cc1ccc(-n2nc(C(C)(C)C)cc2NC(=O)Nc2ccc(OCCN3CCOCC3)c3ccccc23)cc1 [Doramapimod] + COc1cccc2cc(-c3nc([C@H]4CC[C@H](C(=O)O)CC4)n4ncnc(N)c34)[nH]c12 [OSI-027] (partner 0.5 µM)
How it was run: as §1

[3] = compound: C1=CC=C2C(=C1)C=CC(=C2SSC3=C(C=CC4=CC=CC=C43)O)O [IPA-3] + O=C(CCCCCCC(=O)Nc1ccccc1)NO [Vorinostat] (partner 1 µM)
How it was run: as §1

[4] = compound: C1=CC=C2C(=C1)C=CC(=C2SSC3=C(C=CC4=CC=CC=C43)O)O [IPA-3] + COc1cccc2cc(-c3nc([C@H]4CC[C@H](C(=O)O)CC4)n4ncnc(N)c34)[nH]c12 [OSI-027] (partner 0.5 µM)
How it was run: as §1

Cell Line: NCI-H2170
- relative viability ([1]; first compound 0.01 µM): 0.773
- relative viability ([1]; first compound 0.03162 µM): 0.643
- relative viability ([1]; first compound 0.1 µM): 0.671
- relative viability ([1]; first compound 0.3162 µM): 0.524
- relative viability ([1]; first compound 1 µM): 0.641
- relative viability ([2]; first compound 0.02 µM): 0.724
- relative viability ([2]; first compound 0.06325 µM): 0.784
- relative viability ([2]; first compound 0.2 µM): 0.716
- relative viability ([2]; first compound 0.6325 µM): 0.712
- relative viability ([2]; first compound 2 µM): 0.677
- relative viability ([3]; first compound 0.2 µM): 0.87
- relative viability ([3]; first compound 0.6325 µM): 0.997
- relative viability ([3]; first compound 2 µM): 1.04
- relative viability ([3]; first compound 6.325 µM): 0.768
- relative viability ([3]; first compound 20 µM): 0.901
- relative viability ([4]; first compound 0.2 µM): 0.733
- relative viability ([4]; first compound 0.6325 µM): 0.691
- relative viability ([4]; first compound 2 µM): 0.721
- relative viability ([4]; first compound 6.325 µM): 0.672
- relative viability ([4]; first compound 20 µM): 0.677

Cell Line: HCC-366
- relative viability ([1]; first compound 0.01 µM): 0.404
- relative viability ([1]; first compound 0.03162 µM): 0.432
- relative viability ([1]; first compound 0.1 µM): 0.539
- relative viability ([1]; first compound 0.3162 µM): 0.579
- relative viability ([1]; first compound 1 µM): 0.124
- relative viability ([2]; first compound 0.02 µM): 0.837
- relative viability ([2]; first compound 0.06325 µM): 0.918
- relative viability ([2]; first compound 0.2 µM): 0.937
- relative viability ([2]; first compound 0.6325 µM): 1.08
- relative viability ([2]; first compound 2 µM): 0.853
- relative viability ([3]; first compound 0.2 µM): 0.518
- relative viability ([3]; first compound 0.6325 µM): 0.287
- relative viability ([3]; first compound 2 µM): 0.339
- relative viability ([3]; first compound 6.325 µM): 0.341
- relative viability ([3]; first compound 20 µM): 0.318
- relative viability ([4]; first compound 0.2 µM): 0.978
- relative viability ([4]; first compound 0.6325 µM): 0.709
- relative viability ([4]; first compound 2 µM): 0.802
- relative viability ([4]; first compound 6.325 µM): 0.93
- relative viability ([4]; first compound 20 µM): 1.07

Cell Line: NCI-H2347
- relative viability ([1]; first compound 0.01 µM): 1.18
- relative viability ([1]; first compound 0.03162 µM): 0.97
- relative viability ([1]; first compound 0.1 µM): 0.933
- relative viability ([1]; first compound 0.3162 µM): 0.612
- relative viability ([1]; first compound 1 µM): 0.488
- relative viability ([2]; first compound 0.02 µM): 0.509
- relative viability ([2]; first compound 0.2 µM): 0.474
- relative viability ([2]; first compound 0.6325 µM): 0.452
- relative viability ([2]; first compound 2 µM): 0.423
- relative viability ([3]; first compound 0.2 µM): 0.768
- relative viability ([3]; first compound 0.6325 µM): 0.601
- relative viability ([3]; first compound 2 µM): 0.634
- relative viability ([3]; first compound 6.325 µM): 0.506
- relative viability ([3]; first compound 20 µM): 0.638
- relative viability ([4]; first compound 0.2 µM): 0.379
- relative viability ([4]; first compound 0.6325 µM): 0.379
- relative viability ([4]; first compound 2 µM): 0.388
- relative viability ([4]; first compound 6.325 µM): 0.351
- relative viability ([4]; first compound 20 µM): 0.398

Cell Line: COR-L 105
- relative viability ([1]; first compound 0.01 µM): 1.09
- relative viability ([1]; first compound 0.03162 µM): 0.948
- relative viability ([1]; first compound 0.1 µM): 1.16
- relative viability ([1]; first compound 0.3162 µM): 0.603
- relative viability ([1]; first compound 1 µM): 0.461
- relative viability ([2]; first compound 0.02 µM): 0.799
- relative viability ([2]; first compound 0.06325 µM): 0.745
- relative viability ([2]; first compound 0.2 µM): 0.703
- relative viability ([2]; first compound 0.6325 µM): 0.771
- relative viability ([2]; first compound 2 µM): 0.612
- relative viability ([3]; first compound 0.2 µM): 1.08
- relative viability ([3]; first compound 0.6325 µM): 0.543
- relative viability ([3]; first compound 2 µM): 0.907
- relative viability ([3]; first compound 6.325 µM): 0.995
- relative viability ([3]; first compound 20 µM): 0.79
- relative viability ([4]; first compound 0.2 µM): 0.9
- relative viability ([4]; first compound 0.6325 µM): 0.569
- relative viability ([4]; first compound 2 µM): 0.603
- relative viability ([4]; first compound 6.325 µM): 0.74
- relative viability ([4]; first compound 20 µM): 0.738

Cell Line: 201T
- relative viability ([1]; first compound 0.01 µM): 0.981
- relative viability ([1]; first compound 0.03162 µM): 1.02
- relative viability ([1]; first compound 0.1 µM): 1.07
- relative viability ([1]; first compound 0.3162 µM): 1.06
- relative viability ([1]; first compound 1 µM): 0.981
- relative viability ([2]; first compound 0.02 µM): 0.629
- relative viability ([2]; first compound 0.06325 µM): 0.785
- relative viability ([2]; first compound 0.2 µM): 0.71
- relative viability ([2]; first compound 0.6325 µM): 0.782
- relative viability ([2]; first compound 2 µM): 0.781
- relative viability ([3]; first compound 0.2 µM): 1.04
- relative viability ([3]; first compound 0.6325 µM): 0.931
- relative viability ([3]; first compound 2 µM): 1.01
- relative viability ([3]; first compound 6.325 µM): 0.926
- relative viability ([3]; first compound 20 µM): 1.13
- relative viability ([4]; first compound 0.2 µM): 0.741
- relative viability ([4]; first compound 0.6325 µM): 0.683
- relative viability ([4]; first compound 6.325 µM): 0.743
- relative viability ([4]; first compound 20 µM): 0.755

Cell Line: NCI-H2126
- relative viability ([1]; first compound 0.01 µM): 0.75
- relative viability ([1]; first compound 0.03162 µM): 0.751
- relative viability ([1]; first compound 0.1 µM): 0.731
- relative viability ([1]; first compound 0.3162 µM): 0.663
- relative viability ([1]; first compound 1 µM): 0.519
- relative viability ([2]; first compound 0.02 µM): 0.79
- relative viability ([2]; first compound 0.06325 µM): 0.689
- relative viability ([2]; first compound 0.2 µM): 0.631
- relative viability ([2]; first compound 0.6325 µM): 0.71
- relative viability ([2]; first compound 2 µM): 0.58
- relative viability ([3]; first compound 0.2 µM): 0.822
- relative viability ([3]; first compound 0.6325 µM): 0.784
- relative viability ([3]; first compound 2 µM): 0.746
- relative viability ([3]; first compound 6.325 µM): 0.753
- relative viability ([3]; first compound 20 µM): 0.892
- relative viability ([4]; first compound 0.2 µM): 0.727
- relative viability ([4]; first compound 0.6325 µM): 0.748
- relative viability ([4]; first compound 2 µM): 0.666
- relative viability ([4]; first compound 6.325 µM): 0.688
- relative viability ([4]; first compound 20 µM): 0.75

Cell Line: LC-2-ad
- relative viability ([1]; first compound 0.01 µM): 0.771
- relative viability ([1]; first compound 0.03162 µM): 0.727
- relative viability ([1]; first compound 0.1 µM): 0.724
- relative viability ([1]; first compound 0.3162 µM): 0.35
- relative viability ([1]; first compound 1 µM): 0.202
- relative viability ([2]; first compound 0.02 µM): 0.897
- relative viability ([2]; first compound 0.06325 µM): 0.811
- relative viability ([2]; first compound 0.2 µM): 0.891
- relative viability ([2]; first compound 0.6325 µM): 0.827
- relative viability ([2]; first compound 2 µM): 0.671
- relative viability ([3]; first compound 0.2 µM): 0.72
- relative viability ([3]; first compound 0.6325 µM): 0.681
- relative viability ([3]; first compound 2 µM): 0.788
- relative viability ([3]; first compound 6.325 µM): 0.726
- relative viability ([3]; first compound 20 µM): 0.76
- relative viability ([4]; first compound 0.2 µM): 0.937
- relative viability ([4]; first compound 0.6325 µM): 0.878
- relative viability ([4]; first compound 2 µM): 0.858
- relative viability ([4]; first compound 6.325 µM): 0.871
- relative viability ([4]; first compound 20 µM): 1.02

Cell Line: NCI-H2085
- relative viability ([1]; first compound 0.01 µM): 1
- relative viability ([1]; first compound 0.03162 µM): 0.961
- relative viability ([1]; first compound 0.1 µM): 0.85
- relative viability ([1]; first compound 0.3162 µM): 1.03
- relative viability ([1]; first compound 1 µM): 0.891
- relative viability ([2]; first compound 0.02 µM): 0.645
- relative viability ([2]; first compound 0.06325 µM): 0.706
- relative viability ([2]; first compound 0.2 µM): 0.688
- relative viability ([2]; first compound 0.6325 µM): 0.698
- relative viability ([2]; first compound 2 µM): 0.544
- relative viability ([3]; first compound 0.2 µM): 0.868
- relative viability ([3]; first compound 0.6325 µM): 0.756
- relative viability ([3]; first compound 2 µM): 0.819
- relative viability ([3]; first compound 6.325 µM): 0.726
- relative viability ([3]; first compound 20 µM): 0.957
- relative viability ([4]; first compound 0.2 µM): 0.982
- relative viability ([4]; first compound 0.6325 µM): 0.665
- relative viability ([4]; first compound 2 µM): 0.742
- relative viability ([4]; first compound 6.325 µM): 0.9
- relative viability ([4]; first compound 20 µM): 0.817
